Experimental data reported in patent US11045745B2, “Reactive extraction of water” (University of Pittsburgh—Of the Commonwealth System of …, priority 2017, dated 2021).
Marks after values point to notes of the source that are not given here.

Key:
Format in all cases: physicochemical
[1] = Ketone hydration to diol equilibrium constant by room temperature NMR (Technique 1); conditions: for KH,app at 20 ± ° C. (1H) / KH,app at 20 ± ° C. (19F): d6-DMSO/H2O (1/1, mol/mol); for KH,app at 20 ± ° C. (1H): 1H NMR; for KH,app at 20 ± ° C. (19F): 19F NMR
Method: (§1) Ketone hydration to diol equilibrium constants (KH) and thermodynamic parameters for Example compounds were measured by NMR by adapting techniques from the literature [Bushman et al., Berichte der Bunsengesellschaft für physikalische Chemie, 84: 41-44 (1980); Greenzaid et al., J. Amer. Chem. Soc. 89: 749-756 (1967); and R. Stewart and J. D. Van Dyke, Can. J. Chem. 50: 1992-1999 (1972)] using either Technique 1 (IIa) or Technique 2 (IIb), further deviations to the general methods are noted with those Examples. D2O concentration was minimized to reduce the isotope effect (˜20% according to Bushman 1980).
(§2) The conversion from ketone to diol results in an upfield change in nuclear chemical shift. This change in nuclear resonance frequency can then be used to distinguish between ketone and diol peaks in the NMR spectrum. Since area integration of NMR peaks is directly related to the number of atoms resonating at that frequency, the area ratio between diol and ketone peaks can be used to calculate equilibrium constants. Assuming water is in high excess relative to the ketone its activity can be treated as unity resulting in the KH being only dependent on the relative peak integration ratio of diol/ketone:
In many Examples, only a single resonance for each species was available for to determine the diol/ketone ratio. Where available equilibrium constants were calculated by averaging multiple resonance together normalized by number of hydrogens associated with each of them.
Due to the insolubility of some ketones in water, DMSO was used as a co-solvent at 50% by mole. Equilibrium constants obtained with DMSO as a co-solvent are only apparent constants (KH,app) since this alters the activities of the compounds relative to a pure water solvent. […] J. Chem. 50: 1992-1999 (1972)].
In a volumetric flask, ketones were dissolved to a concentration of approximately 0.5 M in 50 mol % d^6-DMSO/H2O. Solutions were left to equilibrate overnight then transferred to an NMR tube for analysis. Solutions were measured by ^1H NMR at (400 MHz) or ^19F NMR (376 MHz) at ambient temperature (20±1° C.).
(§3) This should not affect the measured hydration equilibrium greatly though since water is in such high excess. From Examples 2-2 to 2-5, the tunability of the hydration constant by altering the substituent on the benzyl ring is readily apparent.

[2] = Solubility in water (remark on sample preparation)
Excerpt: as §3

[3] = Ketone hydration equilibrium and thermodynamic parameters by variable temperature NMR (Technique 2), van't Hoff fit; conditions: for ΔG ° / ΔH ° / −TΔS °: van't Hoff fit; for KH at 25° C. (KH,app): apparent constant
Method: as §1, §2
For a select set of compounds a series of variable temperature NMR measurements (IIB: Technique 2) were made to extract reaction standard enthalpy)(ΔH°) and entropy(ΔS°) contributions to free energy of hydration)(ΔG°). Equilibrium constants versus temperature data were fit to the van't Hoff equation to determine ΔH°, ΔS°, and ΔG°; changes in heat capacity were assumed to be negligible:
In a volumetric flask (1.00, 2.00, or 10.00 mL) ketones were dissolved to a concentration of approximately 0.5 M in solvents composed of either D2O/H2O (5/95, v/v; method 2a) or d^6-DMSO/DMSO/H2O (10/40/50 by moles; method 2b). The solution was left to equilibrate at room temperature overnight then transferred to a standard NMR tube.
A series of 1H NMR (400 MHz)measurements were made with variable temperature control (0.1° C. precision) ranging from 25-65° C., typically in 10° C. increments. At each increment once the temperature had stabilized to within ±0.2° C. of the goal, samples were equilibrated for 5 minutes prior to the measurement.
The van't Hoff equation was then fit to a plot of KH vs. temperature; energy standard deviation were calculated from the fit of the equation to the raw data.
Examples 2-6 and 2-11 were prepared using variations to the standard procedure. Example 2-6 was prepared with a concentration of 50 mM, so that it was soluble in water. For Example 2-11, a small amount of enol was also observed (about 0.08 relative to ketone). To account for this, we calculated KH for Example 2-11 as diol/(ketone+enol), assuming enol formation from the ketone is reversible.

CC(=O)C(C)(C)[N+](=O)[O-] [Example 2-1, 3-methyl-3-nitrobutan-2-one]
KH,app at 20 ± ° C. ([1]; D2O/H2O (5/95, v/v), 23 mM): 0.22
solubility in water [2]: low solubility in water

CC(F)(F)C(=O)c1ccccc1 [Example 2-2, 2,2-difluoro-1-phenyl-1-propanone]
KH,app at 20 ± ° C. (1H) [1]: 2.8
KH,app at 20 ± ° C. (19F) [1]: 3.3

COc1ccc(C(=O)C(F)(F)F)cc1 [Example 2-3]
KH,app at 20 ± ° C. (1H) [1]: 21
KH,app at 20 ± ° C. (19F) [1]: 23

O=C(c1ccc(F)cc1)C(F)(F)F [Example 2-4]
KH,app at 20 ± ° C. (19F) [1]: 500 (^19F)

O=C(c1ccccc1)C(F)(F)F [Example 2-5]
KH,app at 20 ± ° C. (19F) [1]: 370 (^19F)

CC(=O)C(C)(C)C#N [Example 2-6]
KH at 25° C. ([3]; D2O/H2O (5/95, v/v)): 0.063
ΔG ° ([3]; D2O/H2O (5/95, v/v)): 1.63 ± 0.48 kcal/mol
ΔH ° ([3]; D2O/H2O (5/95, v/v)): -5.86 ± 0.359 kcal/mol
−TΔS ° ([3]; D2O/H2O (5/95, v/v)): 7.48 ± 0.335 kcal/mol

O=C1CCCCC1F (stereo not drawn) [Example 2-8]
KH at 25° C. (KH,app) ([3]; DMSO/H2O (1/1, mol/mol)): 0.52^a
ΔG ° ([3]; DMSO/H2O (1/1, mol/mol)): 0.96 ± 0.17 kcal/mol
ΔH ° ([3]; DMSO/H2O (1/1, mol/mol)): -5.35 ± 0.096 kcal/mol
−TΔS ° ([3]; DMSO/H2O (1/1, mol/mol)): 6.31 ± 0.14 kcal/mol

O=C(CF)CF [Example 2-9]
KH at 25° C. ([3]; D2O/H2O (5/95, v/v)): 27
ΔG ° ([3]; D2O/H2O (5/95, v/v)): -1.94 ± 0.24 kcal/mol
ΔH ° ([3]; D2O/H2O (5/95, v/v)): -7.5 ± 0.17 kcal/mol
−TΔS ° ([3]; D2O/H2O (5/95, v/v)): 5.57 ± 0.17 kcal/mol

CC(=O)C(C)=O [Example 2-10]
KH at 25° C. ([3]; D2O/H2O (5/95, v/v)): 2.5
ΔG ° ([3]; D2O/H2O (5/95, v/v)): -0.526 ± 0.359 kcal/mol
ΔH ° ([3]; D2O/H2O (5/95, v/v)): -5.98 ± 0.359 kcal/mol
−TΔS ° ([3]; D2O/H2O (5/95, v/v)): 5.45 ± 0.359 kcal/mol

CCC(=O)C(C)=O [Example 2-11]
KH at 25° C. ([3]; D2O/H2O (5/95, v/v)): 1.5
ΔG ° ([3]; D2O/H2O (5/95, v/v)): -0.263 ± 0.12 kcal/mol
ΔH ° ([3]; D2O/H2O (5/95, v/v)): -5.47 ± 0.12 kcal/mol
−TΔS ° ([3]; D2O/H2O (5/95, v/v)): 5.21 ± 0.12 kcal/mol
KH at 25° C. (KH,app) ([3]; DMSO/H2O (1/1, mol/mol)): 0.45^a
ΔG ° ([3]; DMSO/H2O (1/1, mol/mol)): 0.48 kcal/mol
ΔH ° ([3]; DMSO/H2O (1/1, mol/mol)): -5.74 kcal/mol
−TΔS ° ([3]; DMSO/H2O (1/1, mol/mol)): 6.21 kcal/mol
enol observed relative to ketone ([3]; NMR): about 0.08
